Laboratory results reported in patent US12568972B2, “Pyridazinol compounds and derivatives, preparation methods, herbicidal compositions and applications thereof” (Qingdao Kingagroot Chemical Compound Co., Ltd., priority 2018, dated 2026).

Test system: Veronica polita
Experiment: Post-emergence test, weed control effect
Type: in vivo
Settings: Dose 3000 g/ha, after 3 weeks
Summary of the method: (§1)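 Activity is expressed as a level from 0 (no effect) to 10 (plant dead), each step matching a further 10% fresh-weight inhibition, assessed 3 weeks post-treatment. Treatment: spray at 2-3 leaf stage of pot-grown plants, compound in acetone, Tween-80 and water with 80% vegetable oil methyl ester synergist at 1500 g/ha.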

| SMILES | weed control effect, Veronica polita (activity level) | weed control effect (activity level), Veronica polita |
| --- | --- | --- |
| CC(=O)Oc1cc(C(F)(F)F)nnc1-c1ccc(F)cc1 [Compound 1-2] | 10 |  |
| Fc1ccc(-c2nnc(C(F)(F)F)cc2Oc2ccccc2)cc1F [Compound 1-208] | 10 |  |
| O=S(=O)(Oc1cc(C(F)(F)F)nnc1-c1ccc(F)c(F)c1)c1ccc(Cl)cc1 [Compound 1-130] | 10 |  |
| COc1cc(-c2nnc(C(F)(F)F)cc2O)n(C)n1 [Compound 782] |  | 10 |
| CCCCCCCCOC(=O)Oc1cc(C(F)(F)F)nnc1-c1ccc(C(F)(F)F)cc1 [Compound 1-40] | 10 |  |
| O=C(Oc1cc(C(F)(F)F)nnc1-c1ccc(F)cc1)Sc1ccccc1 [Compound 1-164] | 10 |  |
| CCCCCCCCSC(=O)Oc1cc(C(F)(F)F)nnc1-c1ccc(F)cc1 [Compound 1-54] | 10 |  |
| CCS(=O)(=O)Oc1cc(C(F)(F)F)nnc1-c1ccc(F)cc1 [Compound 1-121] | 10 |  |
| Cn1ncc(C#N)c1-c1nnc(C(F)(F)F)cc1O [Compound 820] |  | 10 |
| Oc1cc(C(F)(F)F)nnc1-c1ccc(C(F)(F)F)nc1 [Compound 762] |  | 10 |
| CSc1ccc(-c2nnc(C(F)(F)F)cc2OC(=O)SCCc2ccccc2)cc1 [Compound 1-103] | 10 |  |
| CCCn1cc(-c2nnc(C(F)(F)F)cc2O)cn1 [Compound 546] |  | 10 |
| Cn1ncc(CC(F)(F)F)c1-c1nnc(C(F)(F)F)cc1O [Compound 825] |  | 10 |
| O=C(Oc1cc(C(F)(F)F)nnc1-c1ccc(F)c(F)c1)c1cnccn1 [Compound 1-112] | 10 |  |
| CCCCCCCC(=O)Oc1cc(C(F)(F)F)nnc1-c1ccc(F)c(F)c1 [Compound 1-14] | 10 |  |
| CCOc1cnn(C)c1-c1nnc(C(F)(F)F)cc1O [Compound 812] |  | 10 |
| Oc1cc(C(F)(F)F)nnc1-c1ccc2c(c1)OCO2 [Compound 771] |  | 10 |

Test system: Amaranthus retroflexus
Experiment: Post-emergence test, weed control effect
Type: in vivo
Settings: Dose 3000 g/ha, after 3 weeks
Summary of the method: as §1

| SMILES | weed control effect, Amaranthus retroflexus (activity level) | weed control effect (activity level), Amaranthus retroflexus |
| --- | --- | --- |
| CC(=O)Oc1cc(C(F)(F)F)nnc1-c1ccc(F)cc1 [Compound 1-2] | 10 |  |
| Fc1ccc(-c2nnc(C(F)(F)F)cc2Oc2ccccc2)cc1F [Compound 1-208] | 10 |  |
| O=S(=O)(Oc1cc(C(F)(F)F)nnc1-c1ccc(F)c(F)c1)c1ccc(Cl)cc1 [Compound 1-130] | 10 |  |
| COc1cc(-c2nnc(C(F)(F)F)cc2O)n(C)n1 [Compound 782] |  | 10 |
| CCCCCCCCOC(=O)Oc1cc(C(F)(F)F)nnc1-c1ccc(C(F)(F)F)cc1 [Compound 1-40] | 10 |  |
| O=C(Oc1cc(C(F)(F)F)nnc1-c1ccc(F)cc1)Sc1ccccc1 [Compound 1-164] | 10 |  |
| CCCCCCCCSC(=O)Oc1cc(C(F)(F)F)nnc1-c1ccc(F)cc1 [Compound 1-54] | 10 |  |
| CCS(=O)(=O)Oc1cc(C(F)(F)F)nnc1-c1ccc(F)cc1 [Compound 1-121] | 10 |  |
| Cn1ncc(C#N)c1-c1nnc(C(F)(F)F)cc1O [Compound 820] |  | 10 |
| Oc1cc(C(F)(F)F)nnc1-c1ccc(C(F)(F)F)nc1 [Compound 762] |  | 10 |
| CSc1ccc(-c2nnc(C(F)(F)F)cc2OC(=O)SCCc2ccccc2)cc1 [Compound 1-103] | 10 |  |
| CCCn1cc(-c2nnc(C(F)(F)F)cc2O)cn1 [Compound 546] |  | 10 |
| Cn1ncc(CC(F)(F)F)c1-c1nnc(C(F)(F)F)cc1O [Compound 825] |  | 10 |
| O=C(Oc1cc(C(F)(F)F)nnc1-c1ccc(F)c(F)c1)c1cnccn1 [Compound 1-112] | 10 |  |
| CCCCCCCC(=O)Oc1cc(C(F)(F)F)nnc1-c1ccc(F)c(F)c1 [Compound 1-14] | 10 |  |
| CCOc1cnn(C)c1-c1nnc(C(F)(F)F)cc1O [Compound 812] |  | 10 |
| Oc1cc(C(F)(F)F)nnc1-c1ccc2c(c1)OCO2 [Compound 771] |  | 10 |

Test system: Rorippa indica
Experiment: Post-emergence test, weed control effect
Type: in vivo
Settings: Dose 3000 g/ha, after 3 weeks
Summary of the method: as §1

| SMILES | weed control effect, Rorippa indica (activity level) | weed control effect (activity level), Rorippa indica |
| --- | --- | --- |
| CC(=O)Oc1cc(C(F)(F)F)nnc1-c1ccc(F)cc1 [Compound 1-2] | 10 |  |
| Fc1ccc(-c2nnc(C(F)(F)F)cc2Oc2ccccc2)cc1F [Compound 1-208] | 10 |  |
| O=S(=O)(Oc1cc(C(F)(F)F)nnc1-c1ccc(F)c(F)c1)c1ccc(Cl)cc1 [Compound 1-130] | 10 |  |
| COc1cc(-c2nnc(C(F)(F)F)cc2O)n(C)n1 [Compound 782] |  | 10 |
| CCCCCCCCOC(=O)Oc1cc(C(F)(F)F)nnc1-c1ccc(C(F)(F)F)cc1 [Compound 1-40] | 10 |  |
| O=C(Oc1cc(C(F)(F)F)nnc1-c1ccc(F)cc1)Sc1ccccc1 [Compound 1-164] | 10 |  |
| CCCCCCCCSC(=O)Oc1cc(C(F)(F)F)nnc1-c1ccc(F)cc1 [Compound 1-54] | 10 |  |
| CCS(=O)(=O)Oc1cc(C(F)(F)F)nnc1-c1ccc(F)cc1 [Compound 1-121] | 10 |  |
| Cn1ncc(C#N)c1-c1nnc(C(F)(F)F)cc1O [Compound 820] |  | 10 |
| Oc1cc(C(F)(F)F)nnc1-c1ccc(C(F)(F)F)nc1 [Compound 762] |  | 10 |
| CSc1ccc(-c2nnc(C(F)(F)F)cc2OC(=O)SCCc2ccccc2)cc1 [Compound 1-103] | 10 |  |
| CCCn1cc(-c2nnc(C(F)(F)F)cc2O)cn1 [Compound 546] |  | 10 |
| Cn1ncc(CC(F)(F)F)c1-c1nnc(C(F)(F)F)cc1O [Compound 825] |  | 10 |
| O=C(Oc1cc(C(F)(F)F)nnc1-c1ccc(F)c(F)c1)c1cnccn1 [Compound 1-112] | 10 |  |
| CCCCCCCC(=O)Oc1cc(C(F)(F)F)nnc1-c1ccc(F)c(F)c1 [Compound 1-14] | 10 |  |
| CCOc1cnn(C)c1-c1nnc(C(F)(F)F)cc1O [Compound 812] |  | 10 |
| Oc1cc(C(F)(F)F)nnc1-c1ccc2c(c1)OCO2 [Compound 771] |  | 10 |

Test system: Chenopodiaceae
Experiment: Post-emergence test, weed control effect
Type: in vivo
Settings: Dose 3000 g/ha, after 3 weeks
Summary of the method: as §1

| SMILES | weed control effect, Chenopodiaceae (activity level) | weed control effect (activity level), Chenopodiaceae |
| --- | --- | --- |
| CC(=O)Oc1cc(C(F)(F)F)nnc1-c1ccc(F)cc1 [Compound 1-2] | 10 |  |
| Fc1ccc(-c2nnc(C(F)(F)F)cc2Oc2ccccc2)cc1F [Compound 1-208] | 10 |  |
| O=S(=O)(Oc1cc(C(F)(F)F)nnc1-c1ccc(F)c(F)c1)c1ccc(Cl)cc1 [Compound 1-130] | 10 |  |
| COc1cc(-c2nnc(C(F)(F)F)cc2O)n(C)n1 [Compound 782] |  | 10 |
| CCCCCCCCOC(=O)Oc1cc(C(F)(F)F)nnc1-c1ccc(C(F)(F)F)cc1 [Compound 1-40] | 10 |  |
| O=C(Oc1cc(C(F)(F)F)nnc1-c1ccc(F)cc1)Sc1ccccc1 [Compound 1-164] | 10 |  |
| CCCCCCCCSC(=O)Oc1cc(C(F)(F)F)nnc1-c1ccc(F)cc1 [Compound 1-54] | 10 |  |
| CCS(=O)(=O)Oc1cc(C(F)(F)F)nnc1-c1ccc(F)cc1 [Compound 1-121] | 10 |  |
| Cn1ncc(C#N)c1-c1nnc(C(F)(F)F)cc1O [Compound 820] |  | 10 |
| Oc1cc(C(F)(F)F)nnc1-c1ccc(C(F)(F)F)nc1 [Compound 762] |  | 10 |
| CSc1ccc(-c2nnc(C(F)(F)F)cc2OC(=O)SCCc2ccccc2)cc1 [Compound 1-103] | 10 |  |
| CCCn1cc(-c2nnc(C(F)(F)F)cc2O)cn1 [Compound 546] |  | 10 |
| Cn1ncc(CC(F)(F)F)c1-c1nnc(C(F)(F)F)cc1O [Compound 825] |  | 10 |
| O=C(Oc1cc(C(F)(F)F)nnc1-c1ccc(F)c(F)c1)c1cnccn1 [Compound 1-112] | 10 |  |
| CCCCCCCC(=O)Oc1cc(C(F)(F)F)nnc1-c1ccc(F)c(F)c1 [Compound 1-14] | 10 |  |
| CCOc1cnn(C)c1-c1nnc(C(F)(F)F)cc1O [Compound 812] |  | 10 |
| Oc1cc(C(F)(F)F)nnc1-c1ccc2c(c1)OCO2 [Compound 771] |  | 10 |
